How the values were obtained:
Assay in all cases: Kinase activity test (ReactionBiology), % enzyme activity relative to DMSO
Assay type in all cases: biochemical
[1] = biological target: T1, DAPK1 (Homo sapiens, UniProt P53355); conditions: DAPK1; for % Enzyme Activity (relative to DMSO controls), Data 1: replicate Data 1; for % Enzyme Activity (relative to DMSO controls), Data 2: replicate Data 2
T1 construct: purchased ReactionBiology

[2] = biological target: T2, CK1d (Homo sapiens, UniProt P48730); conditions: CK1d, 1 uM
T2 construct: purchased ReactionBiology
T2 sequence (P48730 whole entry): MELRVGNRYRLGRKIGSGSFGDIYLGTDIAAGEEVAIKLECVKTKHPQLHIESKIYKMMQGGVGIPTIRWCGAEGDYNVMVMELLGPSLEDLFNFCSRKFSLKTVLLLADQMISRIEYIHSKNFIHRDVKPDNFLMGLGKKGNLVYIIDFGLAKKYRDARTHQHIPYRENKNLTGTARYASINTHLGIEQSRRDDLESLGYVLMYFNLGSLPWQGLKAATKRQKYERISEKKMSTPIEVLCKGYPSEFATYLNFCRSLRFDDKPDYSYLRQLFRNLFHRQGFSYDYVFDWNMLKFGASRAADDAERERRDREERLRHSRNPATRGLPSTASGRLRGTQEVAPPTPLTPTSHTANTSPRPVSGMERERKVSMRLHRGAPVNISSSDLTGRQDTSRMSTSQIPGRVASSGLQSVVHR

[3] = biological target: T3, CDC7 (Homo sapiens, UniProt O00311); conditions: CDC7; for % Enzyme Activity (relative to DMSO controls), Data 1: replicate Data 1; for % Enzyme Activity (relative to DMSO controls), Data 2: replicate Data 2;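 as to all read-outs here: each drug screened at both 10 µM and 1 µM across a ten-kinase panel, activity expressed as percent of DMSO control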
T3 construct: purchased ReactionBiology
T3 sequence (O00311 whole entry): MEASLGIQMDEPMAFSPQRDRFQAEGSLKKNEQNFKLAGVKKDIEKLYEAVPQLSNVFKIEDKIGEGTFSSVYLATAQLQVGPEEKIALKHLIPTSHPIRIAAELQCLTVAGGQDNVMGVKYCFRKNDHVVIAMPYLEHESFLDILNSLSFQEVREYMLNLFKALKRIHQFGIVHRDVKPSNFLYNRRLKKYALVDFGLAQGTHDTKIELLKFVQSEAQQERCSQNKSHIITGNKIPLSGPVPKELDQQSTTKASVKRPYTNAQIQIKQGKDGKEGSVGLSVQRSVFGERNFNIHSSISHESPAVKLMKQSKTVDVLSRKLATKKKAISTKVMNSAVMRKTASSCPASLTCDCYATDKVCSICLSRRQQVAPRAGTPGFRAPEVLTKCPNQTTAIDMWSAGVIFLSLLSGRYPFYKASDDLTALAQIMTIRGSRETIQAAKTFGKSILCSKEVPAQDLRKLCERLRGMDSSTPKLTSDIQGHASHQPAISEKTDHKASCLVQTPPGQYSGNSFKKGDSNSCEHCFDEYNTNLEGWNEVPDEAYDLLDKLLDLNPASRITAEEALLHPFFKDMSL
T3 sequence (Q9UBU7 whole entry partner): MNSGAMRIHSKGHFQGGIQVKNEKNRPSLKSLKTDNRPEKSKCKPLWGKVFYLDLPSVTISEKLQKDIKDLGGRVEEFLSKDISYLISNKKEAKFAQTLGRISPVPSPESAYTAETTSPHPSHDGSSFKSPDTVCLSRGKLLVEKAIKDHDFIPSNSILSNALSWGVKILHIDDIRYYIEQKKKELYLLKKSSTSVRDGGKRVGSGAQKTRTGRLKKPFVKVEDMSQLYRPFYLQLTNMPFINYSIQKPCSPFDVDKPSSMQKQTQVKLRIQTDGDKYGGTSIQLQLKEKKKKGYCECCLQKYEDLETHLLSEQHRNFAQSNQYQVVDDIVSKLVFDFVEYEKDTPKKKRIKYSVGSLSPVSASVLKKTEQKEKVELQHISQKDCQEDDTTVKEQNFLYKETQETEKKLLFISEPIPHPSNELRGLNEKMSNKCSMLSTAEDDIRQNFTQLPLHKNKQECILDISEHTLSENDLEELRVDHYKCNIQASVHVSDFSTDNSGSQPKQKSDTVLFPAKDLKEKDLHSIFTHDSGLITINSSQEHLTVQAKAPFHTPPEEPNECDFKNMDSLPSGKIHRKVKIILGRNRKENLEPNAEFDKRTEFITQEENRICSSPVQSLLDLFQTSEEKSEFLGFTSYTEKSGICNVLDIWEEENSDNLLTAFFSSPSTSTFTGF

[4] = biological target: T4, EPHB4 (Homo sapiens, UniProt P54760); conditions: EPHB4; for % Enzyme Activity (relative to DMSO controls), Data 1: replicate Data 1;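 as to all read-outs here: EPHB4 was one of ten selected kinases in the screening panel, with enzyme activity expressed as a percentage of DMSO controls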
T4 construct: purchased ReactionBiology
T4 sequence (P54760 16-987): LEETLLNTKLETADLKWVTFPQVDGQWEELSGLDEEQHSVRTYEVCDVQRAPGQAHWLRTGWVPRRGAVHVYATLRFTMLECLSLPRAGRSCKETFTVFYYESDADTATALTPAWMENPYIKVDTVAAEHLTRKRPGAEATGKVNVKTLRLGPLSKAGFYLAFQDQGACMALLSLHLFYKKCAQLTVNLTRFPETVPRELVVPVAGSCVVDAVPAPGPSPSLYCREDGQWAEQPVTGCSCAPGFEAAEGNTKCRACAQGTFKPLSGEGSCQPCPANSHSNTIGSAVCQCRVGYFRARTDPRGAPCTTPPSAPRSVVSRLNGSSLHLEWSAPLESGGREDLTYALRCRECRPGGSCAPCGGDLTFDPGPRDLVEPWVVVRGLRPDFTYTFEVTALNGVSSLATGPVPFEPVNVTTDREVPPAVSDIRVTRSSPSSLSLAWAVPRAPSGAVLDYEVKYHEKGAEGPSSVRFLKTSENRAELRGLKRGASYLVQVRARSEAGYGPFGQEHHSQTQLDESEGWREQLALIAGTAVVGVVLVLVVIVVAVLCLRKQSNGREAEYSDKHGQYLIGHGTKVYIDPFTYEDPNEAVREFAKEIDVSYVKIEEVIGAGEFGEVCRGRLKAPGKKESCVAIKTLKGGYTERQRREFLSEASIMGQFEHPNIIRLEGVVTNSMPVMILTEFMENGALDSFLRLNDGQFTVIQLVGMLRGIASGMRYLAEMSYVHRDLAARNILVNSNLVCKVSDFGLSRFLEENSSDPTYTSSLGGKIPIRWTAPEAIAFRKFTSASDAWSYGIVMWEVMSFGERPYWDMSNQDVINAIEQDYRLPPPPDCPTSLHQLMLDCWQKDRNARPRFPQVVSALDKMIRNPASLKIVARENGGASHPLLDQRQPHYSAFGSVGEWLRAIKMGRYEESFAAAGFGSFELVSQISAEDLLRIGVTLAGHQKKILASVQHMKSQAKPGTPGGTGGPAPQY

[5] = biological target: VEGFR2 (Homo sapiens, UniProt P35968); parameters: purchased ReactionBiology; conditions: VEGFR2; for % Enzyme Activity (relative to DMSO controls), Data 1: replicate Data 1; for % Enzyme Activity (relative to DMSO controls), Data 2: replicate Data 2;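 as to all read-outs here: VEGFR2 was one member of a ten-kinase screening panel testing marketed FDA-approved drugs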
VEGFR2, sequence (P35968 20-1356): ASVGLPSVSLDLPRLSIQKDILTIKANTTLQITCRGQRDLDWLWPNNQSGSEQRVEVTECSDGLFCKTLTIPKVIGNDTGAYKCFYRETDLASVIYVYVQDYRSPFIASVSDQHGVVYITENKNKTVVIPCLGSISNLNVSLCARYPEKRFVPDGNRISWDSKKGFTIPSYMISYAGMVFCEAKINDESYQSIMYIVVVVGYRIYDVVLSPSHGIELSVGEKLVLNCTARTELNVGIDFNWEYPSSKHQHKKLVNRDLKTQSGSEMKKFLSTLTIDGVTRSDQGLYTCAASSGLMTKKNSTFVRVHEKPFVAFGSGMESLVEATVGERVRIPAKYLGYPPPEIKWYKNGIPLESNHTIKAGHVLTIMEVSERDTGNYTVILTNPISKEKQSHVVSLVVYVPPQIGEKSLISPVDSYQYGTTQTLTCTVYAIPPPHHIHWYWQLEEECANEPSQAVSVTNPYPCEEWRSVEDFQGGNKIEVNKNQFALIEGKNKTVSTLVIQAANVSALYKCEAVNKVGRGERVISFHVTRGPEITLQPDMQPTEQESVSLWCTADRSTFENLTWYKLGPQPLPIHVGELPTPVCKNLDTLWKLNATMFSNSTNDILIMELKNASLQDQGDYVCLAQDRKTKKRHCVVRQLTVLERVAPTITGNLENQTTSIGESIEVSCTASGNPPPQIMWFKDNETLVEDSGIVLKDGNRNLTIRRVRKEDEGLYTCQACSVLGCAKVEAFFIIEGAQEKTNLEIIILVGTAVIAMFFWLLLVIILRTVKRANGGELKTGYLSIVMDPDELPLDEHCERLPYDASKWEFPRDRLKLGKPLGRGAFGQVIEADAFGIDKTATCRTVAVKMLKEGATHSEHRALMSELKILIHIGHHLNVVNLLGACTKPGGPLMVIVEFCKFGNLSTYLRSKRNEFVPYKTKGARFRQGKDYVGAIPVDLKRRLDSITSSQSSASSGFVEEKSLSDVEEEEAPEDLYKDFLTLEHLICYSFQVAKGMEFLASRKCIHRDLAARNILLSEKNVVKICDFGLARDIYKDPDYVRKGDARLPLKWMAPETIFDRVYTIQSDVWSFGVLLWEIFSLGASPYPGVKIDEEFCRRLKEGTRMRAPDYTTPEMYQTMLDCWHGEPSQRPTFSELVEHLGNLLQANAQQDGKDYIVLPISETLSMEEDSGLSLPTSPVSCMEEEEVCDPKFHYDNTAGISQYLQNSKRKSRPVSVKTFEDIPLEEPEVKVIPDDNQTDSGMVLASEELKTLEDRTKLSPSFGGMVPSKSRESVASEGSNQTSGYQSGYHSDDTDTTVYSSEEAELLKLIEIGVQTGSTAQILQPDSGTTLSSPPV

[6] = biological target: T5, MAP2K2 (Homo sapiens, UniProt P36507); conditions: MEK2; for % Enzyme Activity (relative to DMSO controls), Data 1: replicate Data 1; for % Enzyme Activity (relative to DMSO controls), Data 2: replicate Data 2
T5 construct: purchased ReactionBiology
T5 sequence (P36507 whole entry): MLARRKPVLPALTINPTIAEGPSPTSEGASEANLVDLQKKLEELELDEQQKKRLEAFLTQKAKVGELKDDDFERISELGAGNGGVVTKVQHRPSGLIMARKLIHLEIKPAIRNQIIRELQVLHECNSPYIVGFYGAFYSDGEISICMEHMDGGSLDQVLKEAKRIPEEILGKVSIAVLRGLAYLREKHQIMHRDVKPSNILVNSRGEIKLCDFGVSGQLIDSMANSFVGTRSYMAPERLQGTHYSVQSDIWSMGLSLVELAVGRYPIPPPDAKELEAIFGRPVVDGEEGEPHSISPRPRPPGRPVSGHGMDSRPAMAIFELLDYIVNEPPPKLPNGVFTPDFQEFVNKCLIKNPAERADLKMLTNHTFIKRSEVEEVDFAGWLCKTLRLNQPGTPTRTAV

T1 sequence (P53355 whole entry): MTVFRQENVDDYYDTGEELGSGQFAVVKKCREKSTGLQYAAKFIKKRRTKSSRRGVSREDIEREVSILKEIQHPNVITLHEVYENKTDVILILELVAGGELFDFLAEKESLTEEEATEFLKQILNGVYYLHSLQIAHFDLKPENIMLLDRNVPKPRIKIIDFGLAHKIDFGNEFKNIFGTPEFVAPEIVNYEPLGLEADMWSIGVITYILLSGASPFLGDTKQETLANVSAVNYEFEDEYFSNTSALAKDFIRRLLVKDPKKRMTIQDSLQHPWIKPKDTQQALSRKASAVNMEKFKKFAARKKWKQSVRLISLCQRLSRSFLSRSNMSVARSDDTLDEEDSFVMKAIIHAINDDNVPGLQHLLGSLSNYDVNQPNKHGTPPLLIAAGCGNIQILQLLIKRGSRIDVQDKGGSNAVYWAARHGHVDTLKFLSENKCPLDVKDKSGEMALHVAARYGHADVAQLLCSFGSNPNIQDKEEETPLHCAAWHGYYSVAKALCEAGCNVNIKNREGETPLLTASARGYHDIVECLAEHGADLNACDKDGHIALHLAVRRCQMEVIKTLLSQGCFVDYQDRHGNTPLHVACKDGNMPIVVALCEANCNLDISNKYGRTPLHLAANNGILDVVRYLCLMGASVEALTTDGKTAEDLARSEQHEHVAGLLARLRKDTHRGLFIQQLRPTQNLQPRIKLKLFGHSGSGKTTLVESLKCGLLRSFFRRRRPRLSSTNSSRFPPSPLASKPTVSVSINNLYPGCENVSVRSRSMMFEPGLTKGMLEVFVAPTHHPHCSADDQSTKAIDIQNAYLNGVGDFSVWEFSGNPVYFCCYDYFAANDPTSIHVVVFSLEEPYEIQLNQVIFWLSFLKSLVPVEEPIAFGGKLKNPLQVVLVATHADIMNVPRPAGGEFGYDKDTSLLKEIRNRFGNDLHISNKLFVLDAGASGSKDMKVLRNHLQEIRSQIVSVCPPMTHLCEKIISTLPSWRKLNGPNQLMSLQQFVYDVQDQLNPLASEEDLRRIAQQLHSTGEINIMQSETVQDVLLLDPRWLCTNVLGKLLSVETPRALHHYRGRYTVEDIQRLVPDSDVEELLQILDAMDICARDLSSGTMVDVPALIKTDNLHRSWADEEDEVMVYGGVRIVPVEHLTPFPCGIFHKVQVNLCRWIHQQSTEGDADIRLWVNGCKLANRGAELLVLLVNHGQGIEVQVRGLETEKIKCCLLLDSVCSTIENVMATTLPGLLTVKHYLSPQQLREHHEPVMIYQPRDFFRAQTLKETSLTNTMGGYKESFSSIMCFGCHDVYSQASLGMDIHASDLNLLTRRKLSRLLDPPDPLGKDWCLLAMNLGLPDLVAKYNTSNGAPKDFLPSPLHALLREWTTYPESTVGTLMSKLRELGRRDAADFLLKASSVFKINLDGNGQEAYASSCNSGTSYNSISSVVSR

% Enzyme Activity (relative to DMSO controls), Average ([1]; 1 uM) | % Enzyme Activity (relative to DMSO controls), Average ([1]; 10 uM) | % Enzyme Activity (relative to DMSO controls), Average ([3]; 1 uM) | % Enzyme Activity (relative to DMSO controls), Average ([3]; 10 uM) | % Enzyme Activity (relative to DMSO controls), Average ([5]; 1 uM) | % Enzyme Activity (relative to DMSO controls), Average ([5]; 10 uM) | Compound | % Enzyme Activity (relative to DMSO controls), Data 1 ([1]; 1 uM) | % Enzyme Activity (relative to DMSO controls), Data 1 ([1]; 10 uM) | % Enzyme Activity (relative to DMSO controls), Data 1 ([3]; 1 uM) | % Enzyme Activity (relative to DMSO controls), Data 1 ([3]; 10 uM) | also measured
– | – | – | – | – | – | CC(=O)Nc1ccc(O)cc1 [Acetaminophen] | 112.11% | 98.16% | 78.79% | 85.04% | % Enzyme Activity (relative to DMSO controls), Data 1 ([2]; replicate Data 1): 106.63%; % Enzyme Activity (relative to DMSO controls), Data 1 ([4]; 1 uM): 95.30%; % Enzyme Activity (relative to DMSO controls), Data 1 ([4]; 10 uM): 99.39%
99.82% | 92.04% | 74.98% | 84.55% | – | – | CC(C)C[C@H](NC(=O)[C@H](Cc1ccccc1)NC(=O)c1cnccn1)B(O)O [Bortezomib] | 95.51% | 94.13% | 77.59% | 84.43% | % Enzyme Activity (relative to DMSO controls), Data 2 ([1]; 1 uM): 104.12%; % Enzyme Activity (relative to DMSO controls), Data 2 ([1]; 10 uM): 89.94%; % Enzyme Activity (relative to DMSO controls), Data 2 ([3]; 1 uM): 72.36%; % Enzyme Activity (relative to DMSO controls), Data 2 ([3]; 10 uM): 84.67%
109.45% | 99.12% | 70.23% | 72.94% | 102.81% | 107.54% | O=C(N[C@H](CO)[C@H](O)c1ccc([N+](=O)[O-])cc1)C(Cl)Cl [Chloramphenicol] | – | – | – | – | % Enzyme Activity (relative to DMSO controls), Average ([2]; Average): 107.32%; % Enzyme Activity (relative to DMSO controls), Average ([4]; 1 uM): 98.03%; % Enzyme Activity (relative to DMSO controls), Average ([4]; 10 uM): 95.14%
– | – | – | – | 105.46% | 105.67% | CN(C)CCCN1c2ccccc2Sc2ccc(Cl)cc21 [Chlorpromazine] | – | – | – | – | % Enzyme Activity (relative to DMSO controls), Average ([6]; 1 uM): 103.60%; % Enzyme Activity (relative to DMSO controls), Data 1 ([6]; 1 uM): 103.14%; % Enzyme Activity (relative to DMSO controls), Data 2 ([6]; 1 uM): 104.05%; % Enzyme Activity (relative to DMSO controls), Average ([6]; 10 uM): 101.38%; % Enzyme Activity (relative to DMSO controls), Data 1 ([6]; 10 uM): 102.43%; % Enzyme Activity (relative to DMSO controls), Data 2 ([6]; 10 uM): 100.33%; % Enzyme Activity (relative to DMSO controls), Data 1 ([5]; 1 uM): 101.88%; % Enzyme Activity (relative to DMSO controls), Data 2 ([5]; 1 uM): 109.04%; % Enzyme Activity (relative to DMSO controls), Data 1 ([5]; 10 uM): 105.24%; % Enzyme Activity (relative to DMSO controls), Data 2 ([5]; 10 uM): 106.1%

Reference: paper PMC7252619 (PLoS ONE, 2020)
